# Test results: US20070243180A1, “Composition Containing Reduced Coenzyme Q” (priority 2003, published 2007)
# Tests used:
# [1] = Solubility testing in water; type: physicochemical; conditions: 1 g in 100 ml of water, stirred at 5,000 rpm for 30 seconds, observed after 1 hour of standing
# Experimental: Coenzyme Q10 bulk powder (Q-OH bulk powder) containing 98% of reduced coenzyme Q10 and the powdery compositions obtained in Examples 1 to 4 were subjected to solubility testing in the following manner. Thus, 1 g of each composition (test sample) was added to 100 ml of water, and the mixture was stirred at 5,000 rpm for 30 seconds using a mixer and then allowed to stand.
# [2] = Stability testing of reduced coenzyme Q10 against autooxidation on storage in air, protected against light; type: physicochemical; conditions: in the presence of air, at 4 weeks after starting storage, HPLC
# Experimental: In the examples, a reduced coenzyme Q concentration and an oxidized coenzyme Q concentration were determined by the following HPLC analysis. Column; SYMMETRY C18 (product of Waters Corporation), 250 mm (length), 4.6 mm (inside diameter), mobile phase; C2H5OH:CH3OH=4:3 (v:v), detection wavelength; 210 nm, flow rate; 1 ml/min, retention time for a reduced coenzyme Q10; 9.1 min, retention time for an oxidized coenzyme Q10; 13.3 min. Reduced coenzyme Q10 bulk powder (Q-OH bulk powder) containing 2% of oxidized coenzyme Q10 and the powdery compositions I to IV respectively obtained in Examples 1 to 4 were subjected to stability testing in the following manner. Thus, each composition (test sample) was placed in a microtube and stored, in a state protected against light, at 23° C. or 40° C. in the presence of air. After 1, 2 or 4 weeks of storage, 25 mg of each sample was sampled and dissolved in ethanol, the concentrations of oxidized coenzyme Q10 and reduced coenzyme Q10 were measured by HPLC and the percentage of reduced coenzyme Q10 in total coenzyme Q10 as contained in the composition (test sample) was determined.
compound,measurement,setting,value
COc1c(O)c(C)c(C/C=C(\C)CC/C=C(\C)CC/C=C(\C)CC/C=C(\C)CC/C=C(\C)CC/C=C(\C)CC/C=C(\C)CC/C=C(\C)CC/C=C(\C)CCC=C(C)C)c(O)c1OC [reduced coenzyme Q10],Solubility in water,[1],Insoluble
same,Solubility in water,[1]; listed as Coenzyme Q10 bulk powder (Q-OH bulk powder),"insoluble, forming orange-colored oil drops floating on the water"
same,residual reduced coenzyme Q10 percentage relative to total coenzyme Q10 contained in the composition,[2]; stored at 23° C.,41%
same,residual reduced coenzyme Q10 percentage relative to total coenzyme Q10 contained in the composition,[2]; stored at 40° C.,11%
